Test results: US20230085307A1, “PYRIDAZINONE COMPOUND AND HERBICIDE” (NISSAN CHEMICAL CORPORATION, priority 2019, published 2023)

Assays:
late watergrass = experiment: Test Example 1: herbicidal activity, application before weed generation under submerged conditions (Table 16, symbol A); format: in vivo, late watergrass (Echinochloa oryzicola); conditions: amount of applied herbicide 320 g/ha
Procedure, shortened: (§1)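 Alluvial soil was flooded to 4 cm depth, weed seeds were sown mixed and 2.5-leaf rice seedlings were transplanted. On sowing day, the compound's emulsion, diluted in water to a set dose, was applied to the water surface. Plants grew at 25–30 °C and were scored 0–5 after three weeks.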

blackgrass [1] = experiment: Test Example 4: herbicidal effect by soil treatment (Table 19, symbol J); format: in vivo, blackgrass (Alopecurus myosuroides); conditions: amount of applied herbicide 320 g/ha
Procedure, shortened: (§2)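 Step 1: sow seeds in sterilized diluvial soil, cover ~1.5 cm. Step 2: spray diluted emulsion onto soil surface at predetermined rate. Step 3: greenhouse, 25–30° C, three weeks. Step 4: grade effect on each plant by earlier criteria.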

redroot pigweed [2] = experiment: Test Example 5: herbicidal effect by foliage application, plastic box (Table 20, symbol N); format: in vivo, redroot pigweed (Amaranthus retroflexus); conditions: amount of applied herbicide 320 g/ha; foliage application after 14-day growth; evaluated three weeks after application
Procedure, shortened: (§3)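 Foliar spray test: emulsion formulation diluted in water to a set application rate, sprayed onto 14-day-old plants raised in diluvial soil at 25° C to 30° C under glass. Both herbicidal effect and crop effect rated visually three weeks later.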

chickweed [3] = experiment: Test Example 5: herbicidal effect by foliage application, plastic box (Table 20, symbol P); format: in vivo, common chickweed (Stellaria media); conditions: amount of applied herbicide 320 g/ha; foliage application after 14-day growth; evaluated three weeks after application
Procedure, shortened: as §3

blackgrass [4] = experiment: Test Example 5: herbicidal effect by foliage application, plastic box (Table 20, symbol J); format: in vivo, blackgrass (Alopecurus myosuroides); conditions: amount of applied herbicide 320 g/ha; foliage application after 14-day growth; evaluated three weeks after application
Procedure, shortened: as §3

Japanese bulrush = experiment: Test Example 1: herbicidal activity, application before weed generation under submerged conditions (Table 16, symbol B); format: in vivo, Japanese bulrush (Schoenoplectus juncoides); conditions: amount of applied herbicide 320 g/ha
Procedure, shortened: as §1

lambsquarters [5] = experiment: Test Example 5: herbicidal effect by foliage application, plastic box (Table 20, symbol O); format: in vivo, lambsquarters (Chenopodium album); conditions: amount of applied herbicide 320 g/ha; foliage application after 14-day growth; evaluated three weeks after application
Procedure, shortened: as §3

green foxtail [6] = experiment: Test Example 4: herbicidal effect by soil treatment (Table 19, symbol G); format: in vivo, green foxtail (Setaria viridis); conditions: amount of applied herbicide 320 g/ha
Procedure, shortened: as §2

persian speedwell [7] = experiment: Test Example 4: herbicidal effect by soil treatment (Table 19, symbol R); format: in vivo, Persian speedwell (Veronica persica); conditions: amount of applied herbicide 320 g/ha
Procedure, shortened: as §2

redroot pigweed [8] = experiment: Test Example 4: herbicidal effect by soil treatment (Table 19, symbol N); format: in vivo, redroot pigweed (Amaranthus retroflexus); conditions: amount of applied herbicide 320 g/ha
Procedure, shortened: as §2

barnyard grass [9] = experiment: Test Example 4: herbicidal effect by soil treatment (Table 19, symbol H); format: in vivo, barnyard grass (Echinochloa crus-galli); conditions: amount of applied herbicide 320 g/ha
Procedure, shortened: as §2

wild oat [10] = experiment: Test Example 4: herbicidal effect by soil treatment (Table 19, symbol I); format: in vivo, wild oat (Avena fatua); conditions: amount of applied herbicide 320 g/ha
Procedure, shortened: as §2

oval-leafed pondweed = experiment: Test Example 1: herbicidal activity, application before weed generation under submerged conditions (Table 16, symbol C); format: in vivo, oval-leafed pondweed (Monochoria vaginalis); conditions: amount of applied herbicide 320 g/ha
Procedure, shortened: as §1

persian speedwell [11] = experiment: Test Example 5: herbicidal effect by foliage application, plastic box (Table 20, symbol R); format: in vivo, Persian speedwell (Veronica persica); conditions: amount of applied herbicide 320 g/ha; foliage application after 14-day growth; evaluated three weeks after application
Procedure, shortened: as §3

lambsquarters [12] = experiment: Test Example 4: herbicidal effect by soil treatment (Table 19, symbol O); format: in vivo, lambsquarters (Chenopodium album); conditions: amount of applied herbicide 320 g/ha
Procedure, shortened: as §2

barnyard grass [13] = experiment: Test Example 3: herbicidal effect by foliage application, Wagner pot (Table 18, symbol H); format: in vivo, barnyard grass (Echinochloa crus-galli); conditions: 320 g/ha
Procedure, shortened: (§4)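 Plants were sown in alluvial soil held under 0.1–0.5 cm standing water and grown 14 days in a greenhouse at 25–30 °C. An emulsifiable formulation, water-diluted to the set dose, was then sprayed onto the foliage, and effects were scored three weeks later using previously defined criteria.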

Italian ryegrass [14] = experiment: Test Example 5: herbicidal effect by foliage application, plastic box (Table 20, symbol K); format: in vivo, Italian ryegrass (Lolium multiflorum); conditions: amount of applied herbicide 320 g/ha; foliage application after 14-day growth; evaluated three weeks after application
Procedure, shortened: as §3

Chinese sprangletop = experiment: Test Example 3: herbicidal effect by foliage application, Wagner pot (Table 18, symbol D); format: in vivo, chinese sprangletop (Leptochloa chinensis); conditions: 320 g/ha
Procedure, shortened: as §4

chickweed [15] = experiment: Test Example 4: herbicidal effect by soil treatment (Table 19, symbol P); format: in vivo, common chickweed (Stellaria media); conditions: amount of applied herbicide 320 g/ha
Procedure, shortened: as §2

windgrass [16] = experiment: Test Example 5: herbicidal effect by foliage application, plastic box (Table 20, symbol L); format: in vivo, windgrass (Apera spica-venti); conditions: amount of applied herbicide 320 g/ha; foliage application after 14-day growth; evaluated three weeks after application
Procedure, shortened: as §3

southern crabgrass [17] = experiment: Test Example 5: herbicidal effect by foliage application, plastic box (Table 20, symbol F); format: in vivo, southern crabgrass (Digitaria ciliaris); conditions: amount of applied herbicide 320 g/ha; foliage application after 14-day growth; evaluated three weeks after application
Procedure, shortened: as §3

Italian ryegrass [18] = experiment: Test Example 4: herbicidal effect by soil treatment (Table 19, symbol K); format: in vivo, Italian ryegrass (Lolium multiflorum); conditions: amount of applied herbicide 320 g/ha
Procedure, shortened: as §2

velvetleaf [19] = experiment: Test Example 4: herbicidal effect by soil treatment (Table 19, symbol M); format: in vivo, velvetleaf (Abutilon theophrasti); conditions: amount of applied herbicide 320 g/ha
Procedure, shortened: as §2

southern crabgrass [20] = experiment: Test Example 4: herbicidal effect by soil treatment (Table 19, symbol F); format: in vivo, southern crabgrass (Digitaria ciliaris); conditions: amount of applied herbicide 320 g/ha
Procedure, shortened: as §2

barnyard grass [21] = experiment: Test Example 5: herbicidal effect by foliage application, plastic box (Table 20, symbol H); format: in vivo, barnyard grass (Echinochloa crus-galli); conditions: amount of applied herbicide 320 g/ha; foliage application after 14-day growth; evaluated three weeks after application
Procedure, shortened: as §3

rice flat sedge = experiment: Test Example 3: herbicidal effect by foliage application, Wagner pot (Table 18, symbol E); format: in vivo, rice flat sedge (Cyperus iria); conditions: 320 g/ha
Procedure, shortened: as §4

wild oat [22] = experiment: Test Example 5: herbicidal effect by foliage application, plastic box (Table 20, symbol I); format: in vivo, wild oat (Avena fatua); conditions: amount of applied herbicide 320 g/ha; foliage application after 14-day growth; evaluated three weeks after application
Procedure, shortened: as §3

windgrass [23] = experiment: Test Example 4: herbicidal effect by soil treatment (Table 19, symbol L); format: in vivo, windgrass (Apera spica-venti); conditions: amount of applied herbicide 320 g/ha
Procedure, shortened: as §2

velvetleaf [24] = experiment: Test Example 5: herbicidal effect by foliage application, plastic box (Table 20, symbol M); format: in vivo, velvetleaf (Abutilon theophrasti); conditions: amount of applied herbicide 320 g/ha; foliage application after 14-day growth; evaluated three weeks after application
Procedure, shortened: as §3

green foxtail [25] = experiment: Test Example 5: herbicidal effect by foliage application, plastic box (Table 20, symbol G); format: in vivo, green foxtail (Setaria viridis); conditions: amount of applied herbicide 320 g/ha; foliage application after 14-day growth; evaluated three weeks after application
Procedure, shortened: as §3

SMILES: CCCC(=O)Oc1c(C)nn(C)c(=O)c1-c1c(-c2ccccc2OCC)sc2cc(Cl)c(Cl)cc12 [5-046]
- Herbicidal effect, A: late watergrass (late watergrass): 0 (Herbicidal rate of 5% or less (almost no effect))
- J: blackgrass, herbicidal effect grade (blackgrass [1]): 0 (Herbicidal rate of 5% or less (almost no effect))
- Herbicidal effect by foliage application, N: redroot pigweed (redroot pigweed [2]): 5 (Herbicidal rate of 90% or more (almost completely withered))
- Herbicidal effect by foliage application, P: chickweed (chickweed [3]): 5 (Herbicidal rate of 90% or more (almost completely withered))
- Herbicidal effect by foliage application, J: blackgrass (blackgrass [4]): 0 (Herbicidal rate of 5% or less (almost no effect))
- Herbicidal effect, B: Japanese bulrush (Japanese bulrush): 3 (Herbicidal rate of 40% or more and less than 70%)
- Herbicidal effect by foliage application, O: lambsquarters (lambsquarters [5]): 3 (Herbicidal rate of 40% or more and less than 70%)
- G: green foxtail, herbicidal effect grade (green foxtail [6]): 0 (Herbicidal rate of 5% or less (almost no effect))
- R: persian speedwell, herbicidal effect grade (persian speedwell [7]): 0 (Herbicidal rate of 5% or less (almost no effect))
- N: redroot pigweed, herbicidal effect grade (redroot pigweed [8]): 0 (Herbicidal rate of 5% or less (almost no effect))
- H: barnyard grass, herbicidal effect grade (barnyard grass [9]): 0 (Herbicidal rate of 5% or less (almost no effect))
- I: wild oat, herbicidal effect grade (wild oat [10]): 0 (Herbicidal rate of 5% or less (almost no effect))
- Herbicidal effect, C: oval-leafed pondweed (oval-leafed pondweed): 0 (Herbicidal rate of 5% or less (almost no effect))
- Herbicidal effect by foliage application, R: persian speedwell (persian speedwell [11]): 4 (Herbicidal rate of 70% or more and less than 90%)
- O: lambsquarters, herbicidal effect grade (lambsquarters [12]): 0 (Herbicidal rate of 5% or less (almost no effect))
- herbicidal effect on barnyard grass (H) (barnyard grass [13]): 5 (Herbicidal rate of 90% or more (almost completely withered))
- Herbicidal effect by foliage application, K: Italian ryegrass (Italian ryegrass [14]): 0 (Herbicidal rate of 5% or less (almost no effect))
- herbicidal effect on Chinese sprangletop (D) (Chinese sprangletop): 3 (Herbicidal rate of 40% or more and less than 70%)
- P: chickweed, herbicidal effect grade (chickweed [15]): 3 (Herbicidal rate of 40% or more and less than 70%)
- Herbicidal effect by foliage application, L: windgrass (windgrass [16]): 0 (Herbicidal rate of 5% or less (almost no effect))
- Herbicidal effect by foliage application, F: southern crabgrass (southern crabgrass [17]): 3 (Herbicidal rate of 40% or more and less than 70%)
- K: Italian ryegrass, herbicidal effect grade (Italian ryegrass [18]): 0 (Herbicidal rate of 5% or less (almost no effect))
- M: velvetleaf, herbicidal effect grade (velvetleaf [19]): 0 (Herbicidal rate of 5% or less (almost no effect))
- F: southern crabgrass, herbicidal effect grade (southern crabgrass [20]): 0 (Herbicidal rate of 5% or less (almost no effect))
- Herbicidal effect by foliage application, H: barnyard grass (barnyard grass [21]): 4 (Herbicidal rate of 70% or more and less than 90%)
- herbicidal effect on rice flat sedge (E) (rice flat sedge): 5 (Herbicidal rate of 90% or more (almost completely withered))
- Herbicidal effect by foliage application, I: wild oat (wild oat [22]): 0 (Herbicidal rate of 5% or less (almost no effect))
- L: windgrass, herbicidal effect grade (windgrass [23]): 0 (Herbicidal rate of 5% or less (almost no effect))
- Herbicidal effect by foliage application, M: velvetleaf (velvetleaf [24]): 5 (Herbicidal rate of 90% or more (almost completely withered))
- Herbicidal effect by foliage application, G: green foxtail (green foxtail [25]): 3 (Herbicidal rate of 40% or more and less than 70%)
